Laboratory results: PMC10698032, “A monoacylglycerol lipase inhibitor showing therapeutic efficacy in mice without central side effects or dependence” (Nature Communications, 2023)

Assays:
[1] = target: T1, 5-HT2B(h) (agonist radioligand) (Homo sapiens, UniProt P41595); assay: biochemical; set-up: CEREP off-target panel, radioligand binding, inhibition of control specific binding; details: read-out: % Inhibition of Control Specific Binding, Mean
T1 construct: gene HTR2B; agonist radioligand

[2] = target: T2, CB2(h) (agonist radioligand) (Homo sapiens, UniProt P34972); assay: biochemical; set-up: CEREP off-target panel, radioligand binding, inhibition of control specific binding; details: read-out: % Inhibition of Control Specific Binding, Mean
T2 construct: gene CNR2; agonist radioligand

[3] = target: T3, GR (h) (agonist radioligand) (Homo sapiens, UniProt P04150); assay: biochemical; set-up: CEREP off-target panel, radioligand binding, inhibition of control specific binding; details: read-out: % Inhibition of Control Specific Binding, Mean
T3 construct: gene NR3C1; agonist radioligand

[4] = target: T4, kappa (h) (KOP) (agonist radioligand) (Homo sapiens, UniProt P41145); assay: biochemical; set-up: CEREP off-target panel, radioligand binding, inhibition of control specific binding; details: read-out: % Inhibition of Control Specific Binding, Mean
T4 construct: gene OPRK1; agonist radioligand

[5] = target: T5, V1a(h) (agonist radioligand) (Homo sapiens, UniProt P37288); assay: biochemical; set-up: CEREP off-target panel, radioligand binding, inhibition of control specific binding; details: read-out: % Inhibition of Control Specific Binding, Mean
T5 construct: gene AVPR1A; agonist radioligand

[6] = target: T6, D2S(h) (agonist radioligand) (Homo sapiens, UniProt P14416); assay: biochemical; set-up: CEREP off-target panel, radioligand binding, inhibition of control specific binding; details: read-out: % Inhibition of Control Specific Binding, Mean
T6 construct: gene DRD2; short isoform (D2S), agonist radioligand

[7] = target: T7, H1(h) (antagonist radioligand) (Homo sapiens, UniProt P35367); assay: biochemical; set-up: CEREP off-target panel, radioligand binding, inhibition of control specific binding; details: read-out: % Inhibition of Control Specific Binding, Mean
T7 construct: gene HRH1; antagonist radioligand

[8] = target: T8, 5-HT1A(h) (agonist radioligand) (Homo sapiens, UniProt P08908); assay: biochemical; set-up: CEREP off-target panel, radioligand binding, inhibition of control specific binding; details: read-out: % Inhibition of Control Specific Binding, Mean
T8 construct: gene HTR1A; agonist radioligand

[9] = target: T9, β2(h) (antagonist radioligand) (Homo sapiens, UniProt P07550); assay: biochemical; set-up: CEREP off-target panel, radioligand binding, inhibition of control specific binding; details: read-out: % Inhibition of Control Specific Binding, Mean
T9 construct: gene ADRB2; antagonist radioligand

[10] = target: T10, N neuronal α4β2 (h) (agonist radioligand) (Homo sapiens, UniProt P17787+P43681); assay: biochemical; set-up: CEREP off-target panel, radioligand binding, inhibition of control specific binding; details: read-out: % Inhibition of Control Specific Binding, Mean
T10 construct: gene CHRNB2; agonist radioligand

[11] = target: T11, A2A(h) (agonist radioligand)` (Homo sapiens, UniProt P29274); assay: biochemical; set-up: CEREP off-target panel, radioligand binding, inhibition of control specific binding; details: read-out: % Inhibition of Control Specific Binding, Mean
T11 construct: gene ADORA2A; agonist radioligand

[12] = target: T12, μ (MOP) (h) (agonist radioligand) (Homo sapiens, UniProt P35372); assay: biochemical; set-up: CEREP off-target panel, radioligand binding, inhibition of control specific binding; details: read-out: % Inhibition of Control Specific Binding, Mean
T12 construct: gene OPRM1; agonist radioligand

[13] = target: T13, M3(h) (antagonist radioligand) (Homo sapiens, UniProt P20309); assay: biochemical; set-up: CEREP off-target panel, radioligand binding, inhibition of control specific binding; details: read-out: % Inhibition of Control Specific Binding, Mean
T13 construct: gene CHRM3; antagonist radioligand

[14] = target: T14, M1(h) (antagonist radioligand) (Homo sapiens, UniProt P11229); assay: biochemical; set-up: CEREP off-target panel, radioligand binding, inhibition of control specific binding; details: read-out: % Inhibition of Control Specific Binding, Mean
T14 construct: gene CHRM1; antagonist radioligand

[15] = target: T15, D1(h) (antagonist radioligand) (Homo sapiens, UniProt P21728); assay: biochemical; set-up: CEREP off-target panel, radioligand binding, inhibition of control specific binding; details: read-out: % Inhibition of Control Specific Binding, Mean
T15 construct: gene DRD1; antagonist radioligand

[16] = target: T16, AR(h) (agonist radioligand) (Homo sapiens, UniProt P10275); assay: biochemical; set-up: CEREP off-target panel, radioligand binding, inhibition of control specific binding; details: read-out: % Inhibition of Control Specific Binding, Mean
T16 construct: agonist radioligand

[17] = target: T17, 5-HT3(h) (antagonist radioligand) (Homo sapiens, UniProt P46098); assay: biochemical; set-up: CEREP off-target panel, radioligand binding, inhibition of control specific binding; details: read-out: % Inhibition of Control Specific Binding, Mean
T17 construct: gene HTR3A; antagonist radioligand

[18] = target: PDE3A (h) (Homo sapiens, UniProt Q14432); assay: biochemical; set-up: CEREP off-target panel, enzyme inhibition; details: read-out: % Inhibition, Mean (enzymes)
[19] = target: T18, COX1(h) (Homo sapiens, UniProt P23219); assay: biochemical; set-up: CEREP off-target panel, enzyme inhibition; details: read-out: % Inhibition, Mean (enzymes)
T18 construct: gene PTGS1

[20] = target: Lck kinase (h) (Homo sapiens, UniProt P06239); assay: biochemical; set-up: CEREP off-target panel, enzyme inhibition; details: read-out: % Inhibition, Mean (enzymes)
[21] = target: T19, PDE4D2 (h) (Homo sapiens, UniProt Q08499); assay: biochemical; set-up: CEREP off-target panel, enzyme inhibition; details: read-out: % Inhibition, Mean (enzymes)
T19 construct: gene PDE4D; isoform PDE4D2

[22] = target: T20, acetylcholinesterase (h) (Homo sapiens, UniProt P22303); assay: biochemical; set-up: CEREP off-target panel, enzyme inhibition; details: read-out: % Inhibition, Mean (enzymes)
T20 construct: gene ACHE

[23] = target: T21, COX2(h) (Homo sapiens, UniProt P35354); assay: biochemical; set-up: CEREP off-target panel, enzyme inhibition; details: read-out: % Inhibition, Mean (enzymes)
T21 construct: gene PTGS2

[24] = target: T22, MAGL (monoacylglycerol lipase) (Homo sapiens, UniProt Q99685, K36A/L169S/L176S); assay: X-ray co-crystal structure (crystal soaking), […] Å; type: binding
T22 construct: gene MGLL; tag-free hMAGL (K36A, L169S, L176S), His6-TEV tag cleaved

T4 sequence (P41145 whole entry): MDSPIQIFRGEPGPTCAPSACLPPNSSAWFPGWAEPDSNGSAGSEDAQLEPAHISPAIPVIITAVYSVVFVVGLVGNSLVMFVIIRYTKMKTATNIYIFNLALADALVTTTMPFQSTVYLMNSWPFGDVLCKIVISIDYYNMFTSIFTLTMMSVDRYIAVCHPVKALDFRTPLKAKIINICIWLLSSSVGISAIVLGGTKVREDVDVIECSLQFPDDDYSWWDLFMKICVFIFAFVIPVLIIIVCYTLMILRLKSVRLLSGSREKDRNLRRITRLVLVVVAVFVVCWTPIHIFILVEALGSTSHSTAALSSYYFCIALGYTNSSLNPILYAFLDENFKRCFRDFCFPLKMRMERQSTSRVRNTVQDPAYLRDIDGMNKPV
T2 sequence (P34972 whole entry): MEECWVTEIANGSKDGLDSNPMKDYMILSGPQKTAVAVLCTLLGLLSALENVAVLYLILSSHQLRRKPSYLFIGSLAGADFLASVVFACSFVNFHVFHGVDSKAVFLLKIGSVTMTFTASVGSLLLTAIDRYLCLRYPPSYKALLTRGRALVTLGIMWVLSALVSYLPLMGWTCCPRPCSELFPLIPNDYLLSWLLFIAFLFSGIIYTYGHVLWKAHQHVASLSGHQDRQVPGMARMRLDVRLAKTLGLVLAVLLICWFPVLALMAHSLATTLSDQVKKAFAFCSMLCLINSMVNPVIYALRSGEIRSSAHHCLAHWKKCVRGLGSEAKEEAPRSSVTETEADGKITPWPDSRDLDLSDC
T17 sequence (P46098 whole entry): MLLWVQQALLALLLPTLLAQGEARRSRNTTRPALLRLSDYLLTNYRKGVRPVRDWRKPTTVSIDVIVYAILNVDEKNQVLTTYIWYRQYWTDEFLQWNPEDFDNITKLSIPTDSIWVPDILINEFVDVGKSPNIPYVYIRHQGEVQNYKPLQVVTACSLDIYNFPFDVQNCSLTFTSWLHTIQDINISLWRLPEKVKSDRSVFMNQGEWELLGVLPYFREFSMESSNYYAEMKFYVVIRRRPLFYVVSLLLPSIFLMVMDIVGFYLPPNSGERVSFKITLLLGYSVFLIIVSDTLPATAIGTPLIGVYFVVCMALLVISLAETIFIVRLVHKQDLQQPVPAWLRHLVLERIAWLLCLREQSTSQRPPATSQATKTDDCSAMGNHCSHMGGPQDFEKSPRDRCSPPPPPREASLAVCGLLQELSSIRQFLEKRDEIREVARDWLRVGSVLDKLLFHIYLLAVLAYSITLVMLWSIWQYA
T1 sequence (P41595 whole entry): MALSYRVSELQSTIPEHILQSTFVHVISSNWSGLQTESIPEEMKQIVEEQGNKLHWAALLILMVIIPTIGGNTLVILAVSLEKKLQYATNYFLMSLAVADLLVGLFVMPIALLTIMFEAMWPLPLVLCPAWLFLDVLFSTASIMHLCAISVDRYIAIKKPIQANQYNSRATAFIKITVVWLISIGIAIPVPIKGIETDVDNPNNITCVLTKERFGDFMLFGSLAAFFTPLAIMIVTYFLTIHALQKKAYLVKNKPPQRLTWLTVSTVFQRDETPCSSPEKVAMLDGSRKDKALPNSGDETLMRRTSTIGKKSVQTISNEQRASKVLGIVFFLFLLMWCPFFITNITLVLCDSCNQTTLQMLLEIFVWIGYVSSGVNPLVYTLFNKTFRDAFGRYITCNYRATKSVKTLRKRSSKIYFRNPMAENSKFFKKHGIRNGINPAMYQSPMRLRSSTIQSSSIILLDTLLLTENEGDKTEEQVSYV
T11 sequence (P29274 whole entry): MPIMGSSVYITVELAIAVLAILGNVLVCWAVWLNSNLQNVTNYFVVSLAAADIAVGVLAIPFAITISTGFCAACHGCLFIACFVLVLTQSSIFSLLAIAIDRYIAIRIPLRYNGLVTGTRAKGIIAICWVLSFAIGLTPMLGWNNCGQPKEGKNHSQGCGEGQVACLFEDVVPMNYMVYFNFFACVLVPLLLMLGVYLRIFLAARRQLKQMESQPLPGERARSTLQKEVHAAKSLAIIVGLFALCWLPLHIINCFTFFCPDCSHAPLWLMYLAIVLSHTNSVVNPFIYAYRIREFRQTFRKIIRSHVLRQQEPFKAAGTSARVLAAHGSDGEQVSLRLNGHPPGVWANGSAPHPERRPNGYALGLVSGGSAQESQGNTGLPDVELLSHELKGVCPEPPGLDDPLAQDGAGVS
T13 sequence (P20309 whole entry): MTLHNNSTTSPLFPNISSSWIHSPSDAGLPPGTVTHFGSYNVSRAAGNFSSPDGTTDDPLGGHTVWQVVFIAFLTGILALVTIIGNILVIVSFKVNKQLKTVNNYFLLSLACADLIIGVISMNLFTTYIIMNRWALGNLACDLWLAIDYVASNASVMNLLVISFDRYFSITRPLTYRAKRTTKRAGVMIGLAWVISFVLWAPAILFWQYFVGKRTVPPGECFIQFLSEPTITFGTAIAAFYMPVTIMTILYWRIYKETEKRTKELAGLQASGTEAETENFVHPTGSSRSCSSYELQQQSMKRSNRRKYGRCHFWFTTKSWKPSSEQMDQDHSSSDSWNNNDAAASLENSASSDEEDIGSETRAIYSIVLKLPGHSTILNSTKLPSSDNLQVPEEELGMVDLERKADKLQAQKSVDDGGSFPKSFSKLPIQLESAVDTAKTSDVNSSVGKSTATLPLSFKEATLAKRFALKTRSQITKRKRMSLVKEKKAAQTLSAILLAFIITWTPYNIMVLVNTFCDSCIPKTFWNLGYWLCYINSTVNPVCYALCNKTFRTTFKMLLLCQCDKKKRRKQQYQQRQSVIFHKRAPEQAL
T3 sequence (P04150 whole entry): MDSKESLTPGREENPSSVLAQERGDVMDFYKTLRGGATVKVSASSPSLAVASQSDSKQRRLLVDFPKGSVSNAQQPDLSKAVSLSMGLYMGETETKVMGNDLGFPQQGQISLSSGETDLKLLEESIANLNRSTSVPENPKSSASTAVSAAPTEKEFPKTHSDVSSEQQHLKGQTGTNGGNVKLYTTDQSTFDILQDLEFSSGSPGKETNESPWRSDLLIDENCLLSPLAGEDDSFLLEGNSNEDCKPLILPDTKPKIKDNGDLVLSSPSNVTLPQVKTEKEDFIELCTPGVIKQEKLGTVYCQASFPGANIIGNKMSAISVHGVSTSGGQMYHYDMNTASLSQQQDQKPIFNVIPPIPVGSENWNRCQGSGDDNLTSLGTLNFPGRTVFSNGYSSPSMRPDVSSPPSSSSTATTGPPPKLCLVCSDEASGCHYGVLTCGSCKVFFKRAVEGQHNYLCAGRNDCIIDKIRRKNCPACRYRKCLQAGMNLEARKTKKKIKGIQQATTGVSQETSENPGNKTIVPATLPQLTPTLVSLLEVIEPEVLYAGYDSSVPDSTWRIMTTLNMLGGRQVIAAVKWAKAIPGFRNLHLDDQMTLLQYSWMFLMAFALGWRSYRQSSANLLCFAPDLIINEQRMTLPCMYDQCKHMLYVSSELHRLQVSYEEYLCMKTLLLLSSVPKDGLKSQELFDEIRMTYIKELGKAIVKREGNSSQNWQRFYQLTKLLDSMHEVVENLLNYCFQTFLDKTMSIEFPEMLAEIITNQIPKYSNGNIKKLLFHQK
T6 sequence (P14416 whole entry, canonical isoform): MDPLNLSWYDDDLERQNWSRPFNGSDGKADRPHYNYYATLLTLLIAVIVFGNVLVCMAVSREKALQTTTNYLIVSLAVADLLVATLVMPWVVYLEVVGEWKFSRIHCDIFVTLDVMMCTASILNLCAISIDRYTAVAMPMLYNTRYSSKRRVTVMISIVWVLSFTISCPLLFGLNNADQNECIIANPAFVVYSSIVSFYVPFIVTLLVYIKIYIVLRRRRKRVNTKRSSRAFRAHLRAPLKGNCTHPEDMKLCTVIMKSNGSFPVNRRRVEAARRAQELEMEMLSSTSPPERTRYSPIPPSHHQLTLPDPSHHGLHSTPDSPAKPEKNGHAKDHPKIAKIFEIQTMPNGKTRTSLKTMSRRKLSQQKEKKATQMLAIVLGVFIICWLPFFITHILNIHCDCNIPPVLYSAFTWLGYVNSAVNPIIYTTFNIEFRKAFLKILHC
T5 sequence (P37288 whole entry): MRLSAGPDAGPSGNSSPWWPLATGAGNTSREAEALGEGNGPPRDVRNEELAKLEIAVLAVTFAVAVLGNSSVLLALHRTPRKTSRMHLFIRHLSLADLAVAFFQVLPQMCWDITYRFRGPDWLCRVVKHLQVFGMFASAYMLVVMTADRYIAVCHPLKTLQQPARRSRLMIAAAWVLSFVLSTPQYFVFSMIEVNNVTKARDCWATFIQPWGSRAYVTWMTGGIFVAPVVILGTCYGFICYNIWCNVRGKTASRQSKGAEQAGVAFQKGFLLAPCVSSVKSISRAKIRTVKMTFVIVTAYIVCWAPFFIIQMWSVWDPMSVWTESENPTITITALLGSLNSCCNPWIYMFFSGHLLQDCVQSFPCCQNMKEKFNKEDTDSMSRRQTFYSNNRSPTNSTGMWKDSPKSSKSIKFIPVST
T8 sequence (P08908 whole entry): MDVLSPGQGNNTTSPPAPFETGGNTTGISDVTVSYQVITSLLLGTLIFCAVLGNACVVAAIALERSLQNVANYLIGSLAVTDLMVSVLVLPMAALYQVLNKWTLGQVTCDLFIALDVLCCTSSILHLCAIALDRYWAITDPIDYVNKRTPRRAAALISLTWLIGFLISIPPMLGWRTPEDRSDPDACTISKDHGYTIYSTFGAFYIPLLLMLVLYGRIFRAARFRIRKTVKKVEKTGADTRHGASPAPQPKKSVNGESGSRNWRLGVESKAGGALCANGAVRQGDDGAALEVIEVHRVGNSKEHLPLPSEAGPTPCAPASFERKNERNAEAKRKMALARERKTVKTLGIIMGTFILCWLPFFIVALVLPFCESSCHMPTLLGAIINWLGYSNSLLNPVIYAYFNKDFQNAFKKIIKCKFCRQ

CCC(F)(F)C(=O)C[S+]([O-])c1ccc(C(=O)N2CCN(c3cccc(Cl)c3)[C@@H](C)[C@@H]2C)cc1Cl (mixture of isomers) [compound 3, LEI-515]
inhibition at 10 µM [1]: 27.6%
inhibition at 10 µM [2]: -11.9%
inhibition at 10 µM [3]: 30.2%
inhibition at 1 µM [4]: 21.7%
inhibition at 10 µM [4]: 59.5%
inhibition at 10 µM [5]: 9.9%
inhibition at 10 µM [6]: 2.2%
inhibition at 10 µM [7]: 8.1%
inhibition at 10 µM [8]: 10.6%
inhibition at 10 µM [9]: 26.8%
inhibition at 10 µM [10]: -10.5%
inhibition at 10 µM [11]: 11.7%
inhibition at 10 µM [12]: 20.4%
inhibition at 10 µM [13]: -19.9%
inhibition at 10 µM [14]: -29.5%
inhibition at 10 µM [15]: 6.2%
inhibition at 10 µM [16]: -7%
inhibition at 10 µM [17]: -8.1%
inhibition at 10 µM [18]: -27.2%
inhibition at 10 µM [19]: 5.4%
inhibition at 10 µM [20]: -5.3%
inhibition at 10 µM [21]: -16.6%
inhibition at 10 µM [22]: 4.9%
inhibition at 10 µM [23]: 9.5%
X-ray co-crystal structure (crystal soaking), 1.55 Å [24]: LEI-515 was covalently attached to the catalytic Ser122 residue through its electrophilic carbonyl group as a deprotonated hemiketal
